According to US5708063A, “Photochromic compound” (Tokuyama Corporation, priority 1993, dated 1998):

Key:
Assay type in all cases: physicochemical
[1] = Photochromic PMMA cast film: initial coloration density, maximum absorption wavelength and fatigue life in xenon fadeometer (Example 9); settings: PMMA cast film 0.1 mm; for λmax / Initial color density: xenon light; for Initial color density / T1/2: no stabilizer; for T1/2: time for color density to fall to half of initial value, xenon fadeometer;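 for Initial color density: initial color density is an absorbance value so the % unit is wrong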
Text: The thickness of the cast film was adjusted to 0.1 mm.
(§1) T1/2 is defined as the time required for the color density to decrease to half of its initial value when the film is exposed to the fadeometer.

[2] = Fatigue life of photochromic PMMA cast film with ultraviolet stabilizer, xenon fadeometer (Examples 11-14)
Experimental: One hundred parts by weight of benzene, 10 parts by weight of poly(methyl methacrylate), 0.2 part […] The solution was cast on a slide glass (11.2×3.7 cm) to form a cast film having a thickness of 0.1 mm.
The fatigue life of photochromic film was measured as in Example 9 by a xenon long-life fadeometer (FAL-25AX-HC made by Suga Testing Instrument Co., Ltd.).
Example 11 was repeated except that the fulgimide compound obtained in Example 2 was used instead of fulgimide compound used in Example 11.
Example 11 was repeated except that the fulgimide or fulgide compounds shown in Table 28 were used instead of the fulgimide compounds in Example 11, and Cyasorb UV1084 was used as the ultraviolet stabilizer.

[3] = Durability of poly(allyl diglycol carbonate) lens impregnated with the compound in silicone oil, as in Example 9 (Example 10); set-up: Initial color density: unit not given here; settings: silicone oil impregnation; for Initial color density: 1.0×10^-4 mole/g; for T1/2: xenon fadeometer
Experimental: as §1
The solution was impregnated in the surface of a lens composed of poly(allyl diglycol carbonate) at 200° C. for 1 hour. The concentration of the solution was adjusted to 1.0×10^-4 mole/g.

[4] = Fatigue life of fulgide/fulgimide and chromene compound in polymerized methacrylate plate (Example 15); settings: 0.05 part
Experimental: (§2) […] The mixed solution was injected into a mold which was made of a glass plate and a gasket formed of an ethylene-vinyl acetate copolymer, and was heated to a temperature of 35° to 90° C. in an air oven over a period of 20 hours for polymerization. After the polymerization was over, the polymer was withdrawn from the glass plate of the mold.
(§3) The resulting polymerized plate was irradiated with sunlight for 10 minutes. On this occasion, a color tone of said plate was visually observed. In this polymerized plate, the fulgide or fulgimide compound and the chromene compound were measured for fatigue life in the same manner as in Example 9. Further, a color tone of the polymerized plate was visually observed in T1/2 (hrs.) of the fulgide or fulgimide compound.

[5] = Visual color tone of polymerized plate under sunlight (Example 15); settings: 0.05 part
Experimental: as §2, §3

[6] = PMMA film, UV stabilizer Chimassorb 944, 0.2 part
[7] = PMMA film, UV stabilizer Cyasorb 3346, 0.2 part
[8] = PMMA film, UV stabilizer Cyasorb UV1084, 0.2 part
[9] = PMMA film, UV stabilizer Irgastab 2002, 0.2 part
[10] = PMMA film, UV stabilizer Rylex NBC, 0.2 part
[11] = PMMA film, UV stabilizer Spinuvex A-36, 0.2 part
[12] = PMMA film, UV stabilizer Tinuvin 144, 0.2 part
[13] = PMMA film, UV stabilizer Tinuvin 622, 0.2 part
[14] = PMMA film, UV stabilizer Tinuvin 765, 0.2 part
[15] = PMMA film, UV stabilizer UV Chek AM101, 0.2 part
[16] = PMMA film, UV stabilizer UV Chek AM105, 0.2 part

λmax [1] [nm]	Initial color density [1] [%]	λmax [3] [nm]	Initial color density [3]	T1/2 [3] [h]	SMILES	T1/2 [1] [h]	T1/2 [2, 8] [h]	other results
549	0.85	554	0.78	82	COC(=O)CN1C(=O)C2=C(C3CC3)c3ccsc3C3(C4CCC3CC4)C2C1=O (stereo not drawn) [(1), 4-cyclopropyl-6,7-dihydrdo-N-methoxycarbonylmethylspirobenzo[5,6-b]thiophenedicarboxyimido-7,7'-bicyclo[2.2.1]heptane]	77	310	T1/2 ([2]; Cyasorb UV1084, amount added 0.002, 1 part per 100 parts fulgimide): 220 h; T1/2 ([2]; Cyasorb UV1084, amount added 0.1, 50 parts per 100 parts fulgimide): 293 h; T1/2 ([2]; Cyasorb UV1084, amount added 0.8, 400 parts per 100 parts fulgimide): 330 h; T1/2 ([2]; Cyasorb UV1084, amount added 20, 10000 parts per 100 parts fulgimide): 367 h; T1/2 [2, 6]: 283 h; T1/2 [2, 7]: 336 h; T1/2 [2, 9]: 299 h; T1/2 [2, 10]: 323 h; T1/2 [2, 11]: 302 h; T1/2 [2, 12]: 310 h; T1/2 [2, 13]: 327 h; T1/2 [2, 14]: 325 h; T1/2 [2, 15]: 295 h; T1/2 [2, 16]: 272 h; T1/2 ([2]; Tinuvin 765, amount added 0.002, 1 part per 100 parts fulgimide): 213 h; T1/2 ([2]; Tinuvin 765, amount added 0.1, 50 parts per 100 parts fulgimide): 307 h; T1/2 ([2]; Tinuvin 765, amount added 0.8, 400 parts per 100 parts fulgimide): 340 h; T1/2 ([2]; Tinuvin 765, amount added 20, 10000 parts per 100 parts fulgimide): 375 h
610	0.83	615	0.82	85	CC(=O)CN1C(=O)C2=C(C3CC3C)c3cc(-c4ccccc4)sc3C3(C4CCC3CC4)C2C1=O (stereo not drawn) [(10)]	80		T1/2 of fulgide or fulgimide compound ([4]; with chromene 3 (0.08 part)): 190 h; Color tone in T0 ([5]; with chromene 3 (0.08 part)): green; Color tone in T1/2 ([5]; with chromene 3 (0.08 part)): bluish gray
581	0.78				COC(=O)C(C)N1C(=O)C2=C(C3CC3(C)C)c3ccoc3C3(C4CCC3(Cl)CC4)C2C1=O (stereo not drawn) [(12)]	77	320	T1/2 of fulgide or fulgimide compound ([4]; with chromene 4 (0.08 part)): 184 h; Color tone in T0 ([5]; with chromene 4 (0.08 part)): gray; Color tone in T1/2 ([5]; with chromene 4 (0.08 part)): gray
613	0.78				NC1CC1C1=C2C(=O)N(COC(=O)Cc3cccc4ccccc34)C(=O)C2C2(c3c1ccn3-c1ccccc1)C1(O)CCC2(O)CC1 (stereo not drawn) [(21)]	71		T1/2 of fulgide or fulgimide compound ([4]; with chromene 2 (0.03 part)): 172 h; Color tone in T0 ([5]; with chromene 2 (0.03 part)): green; Color tone in T1/2 ([5]; with chromene 2 (0.03 part)): green
569	0.73	571	0.68	85	CCCC1CC1C1=C2C(=O)N(C(C)C(C)=O)C(=O)C2C2(c3oc(OC)cc31)C1CCCC2CCC1 (stereo not drawn) [(30)]	78		T1/2 of fulgide or fulgimide compound ([4]; with chromene 1 (0.03 part)): 186 h; Color tone in T0 ([5]; with chromene 1 (0.03 part)): gray; Color tone in T1/2 ([5]; with chromene 1 (0.03 part)): gray
576	0.75				CCn1c2c(c3ccccc31)C(C1CC1C(=O)O)=C1C(=O)N(CC(=O)OCCC#N)C(=O)C1C21C2CC3CC(O)(C2)CC1(O)C3 (stereo not drawn) [(44)]	62		T1/2 of fulgide or fulgimide compound ([4]; with chromene 3 (0.08 part)): 154 h; Color tone in T0 ([5]; with chromene 3 (0.08 part)): gray; Color tone in T1/2 ([5]; with chromene 3 (0.08 part)): gray
568	1.09	573	0.99	54	O=C1OC(=O)C2C1=C(C1CC1)c1c(sc3c1CCCC3)C21C2CCCC1CCC2 (stereo not drawn) [(54)]	52		T1/2 of fulgide or fulgimide compound ([4]; with chromene 2 (0.03 part)): 134 h; Color tone in T0 ([5]; with chromene 2 (0.03 part)): gray; Color tone in T1/2 ([5]; with chromene 2 (0.03 part)): brown

The next lines start with the compound.

SMILES	λmax [1] [nm]	Initial color density [1] [%]	λmax [3] [nm]	Initial color density [3]	T1/2 [3] [h]	T1/2 [1] [h]	T1/2 [2, 8] [h]	other results
N#CCN1C(=O)C2=C(C3CC3)c3ccsc3C3(C4CCC3CC4)C2C1=O (stereo not drawn) [(2), N-cyanomethyl-4-cyclopropyl-6,7-dihydridospirobenzo[5,6-b]thiophenedicarboxyimido-7,7'-bicyclo[2.2.1]heptane]	563	0.78	568	0.71	91	89	350	T1/2 [2, 6]: 325 h; T1/2 [2, 7]: 385 h; T1/2 ([2]; PMMA film, UV stabilizer Cyasorb UV1084, 0.2 part, listed as Example 2): 355 h; T1/2 [2, 9]: 340 h; T1/2 [2, 10]: 369 h; T1/2 [2, 11]: 346 h; T1/2 [2, 12]: 355 h; T1/2 [2, 13]: 375 h; T1/2 [2, 14]: 373 h; T1/2 [2, 15]: 336 h; T1/2 [2, 16]: 308 h
CNC(=O)CCC(=O)CCN1C(=O)C2=C(C3CC3SC)c3ccn(C)c3C3(C4CCC3(C)CC4)C2C1=O (stereo not drawn) [(15)]	613	0.69				65		T1/2 of fulgide or fulgimide compound ([4]; with chromene 5 (0.04 part)): 160 h; Color tone in T0 ([5]; with chromene 5 (0.04 part)): green; Color tone in T1/2 ([5]; with chromene 5 (0.04 part)): light gray
CCCCC1CC1C1=C2C(=O)N(C(C)(C)C#N)C(=O)C2C2(c3c(OC)cc(OC)cc31)C1CCC2(CCCC)CC1 (stereo not drawn) [(17)]	568	0.58				58	230	T1/2 of fulgide or fulgimide compound ([4]; with chromene 5 (0.03 part)): 146 h; Color tone in T0 ([5]; with chromene 5 (0.03 part)): gray; Color tone in T1/2 ([5]; with chromene 5 (0.03 part)): gray
CCOC1CC1C1=C2C(=O)N(C(C#N)CC)C(=O)C2C2(c3sc(OC)c(C)c31)C1CC3CC(C1)CC2C3 (stereo not drawn) [(36)]	576		582	0.77	95	88		T1/2 of fulgide or fulgimide compound ([4]; with chromene 2 (0.03 part)): 206 h; Color tone in T0 ([5]; with chromene 2 (0.03 part)): gray; Color tone in T1/2 ([5]; with chromene 2 (0.03 part)): gray
Cc1cc2c(n1C)C1(C3CC4CC(F)(C3)CC1(F)C4)C1C(=O)N(C3CCC([N+](=O)[O-])CC3)C(=O)C1=C2C1CC1 (stereo not drawn) [(40)]	532	0.77	535	0.70	74	71	280	
CCC(C(=O)C[N+](=O)[O-])N1C(=O)C2=C(C3CC3)c3cc(OC)cc(OC)c3C3(C4CC5CC(C4)CC3C5)C2C1=O (stereo not drawn) [(45)]	579	0.54				65	265	T1/2 of fulgide or fulgimide compound ([4]; with chromene 2 (0.03 part)): 160 h; Color tone in T0 ([5]; with chromene 2 (0.03 part)): gray; Color tone in T1/2 ([5]; with chromene 2 (0.03 part)): light gray
O=C(CN1C(=O)C2=C(C3CC3)c3c(sc4c3CCCC4)C3(C4CC5CC(C4)CC3C5)C2C1=O)NCCCl (stereo not drawn) [(46)]		0.71				59		T1/2 of fulgide or fulgimide compound ([4]; with chromene 5 (0.07 part)): 148 h; Color tone in T0 ([5]; with chromene 5 (0.07 part)): amber; Color tone in T1/2 ([5]; with chromene 5 (0.07 part)): amber
